# From US20060148760A1, “Method for the sysnthesis of compounds of formula I and their uses thereof” (TransTech Pharma, priority 2000, published 2006)
# Structures can show the parent of a compound that is named as a salt.
# Test system: S-100b/RAGE interaction in Glioma cells
# Assay: Functional assay: inhibition of NF-κB in Glioma cells (S-100b/RAGE interaction)
# Type: cell-based
# Conditions: Glioma cell
smiles,measurement,value
"CCCCOc1cc(C(=O)OCCN(CC)CC)ccc1NC(=O)[C@H](N)Cc1ccc2ccccc2c1 [Example 1, (R)-3-(2-Naphthyl)-2-aminopropionic Acid 4-Diethylaminoethoxycarbonyl-2-butoxyaniline Amide Dihydrochloride]",IC50,3.3 µM
